According to patent US11919885B1, “4-(4-bromophenyl)-2-alkyloxy-6-(2-oxo-2H-1-benzopyran-3-yl)pyridine-3-carbonitrile as antimicrobial compounds” (KING FAISAL UNIVERSITY, priority 2023, dated 2024):

How the values were obtained:
Type in all cases: cell-based
[1] = system: Chrysosporium keratinophilum; experiment: Agar plate disc-diffusion, antifungal activity (inhibition zone); details: Sabouraud's dextrose agar, 37° C., 72 h, DMSO control zone subtracted; for inhibition zone, Chrysosporium keratinophilum, A: A = concentration of comp. = 10,000 μL; for inhibition zone, Chrysosporium keratinophilum, B: B = concentration of comp. = 30.000 μL; for inhibition zone, Chrysosporium keratinophilum, C: C = concentration of comp. = 50,000 μL
Experimental: (§1) The agar plate disc-diffusion method was applied. Sterilized filter papers (6 mm in diameter) were wetted with 10 μL of a solution of 4-(4-Bromophenyl)-2-ethoxy-6-(2-oxo-2H-1-benzopyran-3-yl)-4-phenylpyridine-3-carbonitrile (1) or 4-(4-Bromophenyl)-2-methoxy-6-(2-oxo-2H-1-benzopyran-3-yl)-4-phenylpyridine-3-carbonitrile (2) to be tested, containing […], and the discs were allowed to air dry. The discs were then placed onto the surface of agar plates (nutrient agar for bacteria and Sabouraud's dextrose agar for fungi) seeded with the test organism. Each plate contained 15 mL of the agar medium, previously seeded with 0.2 mL of the broth culture of each organism pregrown for 18 hours. The plates were incubated at 37° C. for 48 h, and 72 h for fungi. The inhibition zones were measured in mm. Discs impregnated with DMSO were used as a control, and its inhibition zone was subtracted from the tested compound actual inhibition zone.
(§2) The results of the antimicrobial testing can be observed in Tables 1 and 2, below, using ciprofloxacin as a reference.

Aspergillus flavus = experiment: as above; details: Sabouraud's dextrose agar, 37° C., 72 h, DMSO control zone subtracted; for inhibition zone, Aspergillus flavus, A: A = concentration of comp. = 10,000 μL; for inhibition zone, Aspergillus flavus, B: B = concentration of comp. = 30.000 μL; for inhibition zone, Aspergillus flavus, C: C = concentration of comp. = 50,000 μL
Experimental: as §1, §2

Staphylococcus aureus = experiment: Agar plate disc-diffusion, antibacterial activity (inhibition zone); details: nutrient agar, 37° C., 48 h, DMSO control zone subtracted; for inhibition zone, Staphylococcus aureus, A: A = concentration of comp. = 10,000 μL; for inhibition zone, Staphylococcus aureus, B: B = concentration of comp. = 30.000 μL; for inhibition zone, Staphylococcus aureus, C: C = concentration of comp. = 50,000 μL
Experimental: as §1, §2

Escherichia coli = experiment: as above; details: nutrient agar, 37° C., 48 h, DMSO control zone subtracted; for inhibition zone, Escherichia coli, A: A = concentration of comp. = 10,000 μL; for inhibition zone, Escherichia coli, B: B = concentration of comp. = 30.000 μL; for inhibition zone, Escherichia coli, C: C = concentration of comp. = 50,000 μL
Experimental: as §1, §2

Pseudomonas aeruginosa = experiment: as above; details: nutrient agar, 37° C., 48 h, DMSO control zone subtracted; for inhibition zone, Pseudomonas aeruginosa, A: A = concentration of comp. = 10,000 μL; for inhibition zone, Pseudomonas aeruginosa, B: B = concentration of comp. = 30.000 μL; for inhibition zone, Pseudomonas aeruginosa, C: C = concentration of comp. = 50,000 μL
Experimental: as §1, §2

Bacillus cereus = experiment: as above; details: nutrient agar, 37° C., 48 h, DMSO control zone subtracted; for inhibition zone, Bacillus Cereus, A: A = concentration of comp. = 10,000 μL; for inhibition zone, Bacillus Cereus, B: B = concentration of comp. = 30.000 μL; for inhibition zone, Bacillus Cereus, C: C = concentration of comp. = 50,000 μL
Experimental: as §1, §2

O=C(O)c1cn(C2CC2)c2cc(N3CCNCC3)c(F)cc2c1=O [Cip., ciprofloxacin, reference compound]
inhibition zone, Chrysosporium keratinophilum, A [1]: 29 mm | inhibition zone, Chrysosporium keratinophilum, B [1]: 30 mm | inhibition zone, Chrysosporium keratinophilum, C [1]: 53 mm | inhibition zone, Aspergillus flavus, A (Aspergillus flavus): 29 mm | inhibition zone, Aspergillus flavus, B (Aspergillus flavus): 30 mm | inhibition zone, Aspergillus flavus, C (Aspergillus flavus): 42 mm | inhibition zone, Staphylococcus aureus, A (Staphylococcus aureus): 43 mm | inhibition zone, Staphylococcus aureus, B (Staphylococcus aureus): 44 mm | inhibition zone, Staphylococcus aureus, C (Staphylococcus aureus): 53 mm | inhibition zone, Escherichia coli, A (Escherichia coli): 30 mm | inhibition zone, Escherichia coli, B (Escherichia coli): 39 mm | inhibition zone, Escherichia coli, C (Escherichia coli): 60 mm | inhibition zone, Pseudomonas aeruginosa, A (Pseudomonas aeruginosa): 29 mm | inhibition zone, Pseudomonas aeruginosa, B (Pseudomonas aeruginosa): 30 mm | inhibition zone, Pseudomonas aeruginosa, C (Pseudomonas aeruginosa): 53 mm | inhibition zone, Bacillus Cereus, A (Bacillus cereus): 29 mm | inhibition zone, Bacillus Cereus, B (Bacillus cereus): 30 mm | inhibition zone, Bacillus Cereus, C (Bacillus cereus): 42 mm

CCOc1nc(-c2cc3ccccc3oc2=O)cc(-c2ccc(Br)cc2)c1C#N [Compound 1, 4-(4-Bromophenyl)-2-ethoxy-6-(2-oxo-2H-1-benzopyran-3-yl)pyridine-3-carbonitrile]
inhibition zone, Chrysosporium keratinophilum, A [1]: 24 mm | inhibition zone, Chrysosporium keratinophilum, B [1]: 29 mm | inhibition zone, Chrysosporium keratinophilum, C [1]: 42 mm | inhibition zone, Aspergillus flavus, A (Aspergillus flavus): 28 mm | inhibition zone, Aspergillus flavus, B (Aspergillus flavus): 30 mm | inhibition zone, Aspergillus flavus, C (Aspergillus flavus): 41 mm | inhibition zone, Staphylococcus aureus, A (Staphylococcus aureus): 20 mm | inhibition zone, Staphylococcus aureus, B (Staphylococcus aureus): 25 mm | inhibition zone, Staphylococcus aureus, C (Staphylococcus aureus): 35 mm | inhibition zone, Escherichia coli, A (Escherichia coli): 30 mm | inhibition zone, Escherichia coli, B (Escherichia coli): 40 mm | inhibition zone, Escherichia coli, C (Escherichia coli): 50 mm | inhibition zone, Pseudomonas aeruginosa, A (Pseudomonas aeruginosa): 25 mm | inhibition zone, Pseudomonas aeruginosa, B (Pseudomonas aeruginosa): 30 mm | inhibition zone, Pseudomonas aeruginosa, C (Pseudomonas aeruginosa): 39 mm | inhibition zone, Bacillus Cereus, A (Bacillus cereus): 30 mm | inhibition zone, Bacillus Cereus, B (Bacillus cereus): 34 mm | inhibition zone, Bacillus Cereus, C (Bacillus cereus): 40 mm

COc1nc(-c2cc3ccccc3oc2=O)cc(-c2ccc(Br)cc2)c1C#N [Compound 2, 4-(4-Bromophenyl)-2-methoxy-6-(2-oxo-2H-1-benzopyran-3-yl)pyridine-3-carbonitrile]
inhibition zone, Chrysosporium keratinophilum, A [1]: 25 mm | inhibition zone, Chrysosporium keratinophilum, B [1]: 28 mm | inhibition zone, Chrysosporium keratinophilum, C [1]: 40 mm | inhibition zone, Aspergillus flavus, A (Aspergillus flavus): 20 mm | inhibition zone, Aspergillus flavus, B (Aspergillus flavus): 21 mm | inhibition zone, Aspergillus flavus, C (Aspergillus flavus): 31 mm | inhibition zone, Staphylococcus aureus, A (Staphylococcus aureus): 15 mm | inhibition zone, Staphylococcus aureus, B (Staphylococcus aureus): 22 mm | inhibition zone, Staphylococcus aureus, C (Staphylococcus aureus): 30 mm | inhibition zone, Escherichia coli, A (Escherichia coli): 29 mm | inhibition zone, Escherichia coli, B (Escherichia coli): 37 mm | inhibition zone, Escherichia coli, C (Escherichia coli): 48 mm | inhibition zone, Pseudomonas aeruginosa, A (Pseudomonas aeruginosa): 27 mm | inhibition zone, Pseudomonas aeruginosa, B (Pseudomonas aeruginosa): 33 mm | inhibition zone, Pseudomonas aeruginosa, C (Pseudomonas aeruginosa): 40 mm | inhibition zone, Bacillus Cereus, A (Bacillus cereus): 25 mm | inhibition zone, Bacillus Cereus, B (Bacillus cereus): 32 mm | inhibition zone, Bacillus Cereus, C (Bacillus cereus): 37 mm
